PubChem BioAssay AID2305 (GlaxoSmithKline (GSK), 2010)

test system: P. falciparum 3D7 growth, pLDH absorbance; test: P. falciparum 3D7 growth inhibition, dose response, strain 3D7 (AID 2305)

| SMILES | IC50 [nM] |
| --- | --- |
| CN1CCC(N2CCN(Cc3ccc(-c4ccc(-c5nc6ccc(F)cc6[nH]5)s4)cc3)CC2)CC1 | 150 |
| COc1ccc(-c2cncc3ccc(C(=O)NCCCn4ccnc4)nc23)cc1 | 750 |
| O=C(NCCN1CCCC1)N1CCCN(c2ncnc3cc(-c4ccc(F)cc4)sc23)CC1 | 900 |
| NC(=O)c1cccc(C(=O)Nc2ccc(-c3cccc(-c4nc5ccc(F)cc5[nH]4)c3)cc2)c1 | 870 |
| O=C(C=Cc1ccc([N+](=O)[O-])cc1)N1CCC(CCN2CCC(c3c[nH]c4ccccc34)CC2)CC1 | 740 |
| NC(=O)C1CCN(Cc2ccc(-c3cccc(-c4nc5ccc(F)cc5[nH]4)c3)cc2)CC1 | 880 |
| Cc1[nH]c(C)c(-c2ccc(OCc3cc(C(F)(F)F)cc(C(F)(F)F)c3)nc2)c(=O)c1Cl | 110 |
| O=C(/C=C/c1ccc(C(F)(F)F)cc1)NCCCCCN1CCN(C(=O)Nc2ccc(F)c(Cl)c2)CC1 | 1210 |
| Cc1ccn2c(N(Cc3ccccc3)C(=O)c3ccc(Cl)c(Cl)c3)c(-c3ccccc3)nc2c1 | 990 |
| COc1ccc(CNC(=O)c2cc3c(=O)n4ccccc4nc3n(CCc3ccccc3)c2=N)cc1 | 330 |
| Cc1nc2c(s1)c(=O)cc(CCc1cccc(F)c1F)n2CC(=O)N(Cc1ccc(-c2ccc(C(F)(F)F)cc2)cc1)C1CCN(C(C)C)CC1 | 770 |
| COc1ccc(N2CCN(CCCCNCc3ccc(NC(=O)c4cc(Cl)cc(Cl)c4)cc3)CC2)c(OC)c1 | 250 |
| CN(C)CCNc1ncnc2c1[nH]c1ccc(Cl)cc12 | 600 |
| COc1ccc(CCNC(=O)c2ccccc2O)cc1-c1ccc(C(C)(C)C)cc1 | 560 |
| NCCCNc1nccc(N2CCc3ncnc(Nc4ccc(OCc5cccc(F)c5)c(Cl)c4)c3C2)n1 | 830 |
| COc1ccc(C(=O)Nc2ccc3oc(-c4ccc(C(F)(F)F)cc4)cc3c2)cc1CCCN(C)C | 700 |
| CCCCCC(C)NC[C@@H](O)[C@H](Cc1ccccc1)NC(=O)c1cc(NCC)cc(N2CCCCS2(=O)=O)c1 (some centres undefined) | 400 |
| CC(=O)Nc1ccc(C(=O)Nc2ccc(-c3cccc(-c4nc5ccccc5[nH]4)c3)cc2)cn1 | 240 |
| CCN1CCN(CCCNc2c3ccc(Cl)cc3nc3ccc(O)cc23)CC1 | 570 |
| Cc1cnc(C(=O)Nc2ccc3c(c2)CCCN(Cc2c[nH]c4cnccc24)C3)cn1 | 1230 |
| O=C(Nc1ccc2c(c1)CCC2)c1cccc(N2CCN(c3ccncc3)CC2)c1 | 970 |
| Cc1cccc2[nH]c(-c3cccc(-c4ccc(CNCc5ccccc5)cc4)c3)nc12 | 150 |
| Cc1cc(NC2CCN(CC3CCCCC3)CC2)nc(Nc2ccccc2Cl)n1 | 640 |
| Oc1ccc2ccccc2c1CNCCC1CCCCC1 | 170 |
| CN1CCN(Cc2ccc(-c3ccc4c(Nc5ccc(Cl)cc5F)ccnc4c3)o2)CC1 | 150 |

| SMILES | IC50 [nM] |
| --- | --- |
| CC(C)c1sc(N2CCN(C)CC2)nc1C(=O)Nc1ccc(F)cc1C(F)(F)F | 190 |
| COc1cc(C(=O)N2CCN(C(C)C)CC2)ccc1CN(C)CCCCN1CCN(c2cccc(Cl)c2Cl)CC1 | 700 |
| NCCNS(=O)(=O)c1ccc(-c2ccnc3[nH]c(-c4ccncc4)cc23)cc1 | 840 |
| CN(C)CCCOc1ccc(-c2csc(NC(N)=NCc3ccccc3)n2)cc1 | 280 |
| COc1ccc2c(NN=Cc3cccc(Cl)c3)cc(C)nc2c1 | 730 |
| Cc1cc(NC(=O)Nc2ccc3sccc3c2)c2ccccc2n1 | 530 |
| COc1ccccc1C1CCN(CCCCNC(=O)c2ccc(/C=C/c3cc(Cl)cc(Cl)c3)cc2)CC1 | 720 |
| CC(=O)Nc1ccc(C(=O)Nc2cccc(-c3ccc(-c4nc5ccc(C(F)(F)F)cc5[nH]4)s3)c2)cn1 | 130 |
| NC1CCN(Cc2cccc(-c3ccc(-c4nc5ccccc5[nH]4)s3)c2)C1 (centres undefined) | 730 |
| O=C(NCc1ccccc1)NC(CCCN1CCC(Oc2cccc(Cl)c2)CC1)c1ccc(Cl)c(Cl)c1 (centres undefined) | 860 |
| COc1ccc(S(=O)(=O)NC2CCN(CCNC(=O)Nc3cc(C)nc4ccccc34)C2)cc1 (centres undefined) | 1190 |
| COc1cccc(CN2Cc3ccccc3OC3(CCN(Cc4c[nH]c5cnccc45)CC3)C2)c1 | 1300 |
| O=C(NCc1ccccc1)Nc1ccc(-c2ccc(-c3nc4ccc(C(F)(F)F)cc4[nH]3)cc2)cc1 | 670 |
| CC(c1cccc(Nc2nccc(-c3c(-c4cccc(NC(=O)c5c(F)cccc5F)c4)nn4ncccc34)n2)c1)S(C)(=O)=O (centres undefined) | 50 |
| COc1cccc2c(NCc3ccccc3)nc(NCCCN3CCCCC3C)nc12 (centres undefined) | 910 |
| COc1ccc(O)c(Cc2cnc3nc(N)nc(N)c3c2C)c1 | 40 |
| Cc1ccc(Oc2ncccc2C(=O)Nc2cccc3cccnc23)c(C)c1 | 220 |
| O=C(Nc1ccc(OC2CCN(Cc3ccccc3)C2)c(Cl)c1)c1ccco1 (centres undefined) | 410 |
| O=C(Nc1ccccc1Cc1ccccc1)c1ccccc1C(F)(F)F | 780 |
| Cc1cc(NN=Cc2ccccn2)c2cc(C(F)(F)F)ccc2n1 | 620 |
| O=C(Nc1cccc(CN2CCCN(Cc3ccsc3)CC2)c1)c1ccc(-c2ccccc2)cc1 | 1340 |
| Clc1ccc2c(NN=Cc3cccs3)ccnc2c1 | 920 |
| COc1ccc2nc(-c3ccccc3)cc(NN=Cc3ccncc3)c2c1 | 810 |
| COc1cc(NC(=O)Nc2cc(C)nc3ccccc23)cc(OC)c1 | 400 |
